The text below walks through data of ChEMBL document CHEMBL5316358, “Structure-Activity Relationships of Ligand Binding to Oxysterol-Binding Protein (OSBP) and OSBP-Related Protein 4” (J Med Chem, 2023).

For assay [1], the target named is T1, Oxysterol-binding protein 2 (Homo sapiens, UniProt Q969R2).
T1 sequence (Q969R2 whole entry): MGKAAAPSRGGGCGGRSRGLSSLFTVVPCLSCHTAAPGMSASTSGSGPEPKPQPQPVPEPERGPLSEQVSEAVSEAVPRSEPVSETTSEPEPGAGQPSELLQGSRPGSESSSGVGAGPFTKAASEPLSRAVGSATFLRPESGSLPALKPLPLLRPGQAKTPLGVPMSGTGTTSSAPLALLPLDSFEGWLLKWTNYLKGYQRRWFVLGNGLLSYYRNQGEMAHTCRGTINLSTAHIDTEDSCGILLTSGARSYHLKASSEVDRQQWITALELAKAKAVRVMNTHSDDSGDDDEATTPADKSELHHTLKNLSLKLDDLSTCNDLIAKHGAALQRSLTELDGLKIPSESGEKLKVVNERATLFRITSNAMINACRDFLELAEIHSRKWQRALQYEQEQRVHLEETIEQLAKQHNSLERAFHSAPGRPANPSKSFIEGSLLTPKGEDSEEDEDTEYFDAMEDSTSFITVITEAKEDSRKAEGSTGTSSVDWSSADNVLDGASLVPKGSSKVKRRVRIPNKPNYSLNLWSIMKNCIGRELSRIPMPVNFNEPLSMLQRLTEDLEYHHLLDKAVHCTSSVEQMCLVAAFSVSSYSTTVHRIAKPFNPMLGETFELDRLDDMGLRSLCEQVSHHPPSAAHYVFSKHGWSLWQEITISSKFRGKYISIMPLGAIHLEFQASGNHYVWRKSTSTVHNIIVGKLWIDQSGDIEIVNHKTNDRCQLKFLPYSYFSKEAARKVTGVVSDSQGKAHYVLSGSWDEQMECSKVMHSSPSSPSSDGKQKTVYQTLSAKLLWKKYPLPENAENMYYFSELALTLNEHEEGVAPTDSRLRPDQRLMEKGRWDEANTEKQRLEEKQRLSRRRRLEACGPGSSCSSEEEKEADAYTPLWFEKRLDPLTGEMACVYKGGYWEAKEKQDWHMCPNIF
Description: Displacement of [3H]-25-OHC from human ORP4 overexpressed in HEK293T cell lysate assessed as inhibition constant by competitive binding assay. It is filed as subcellular. On the technique in general: In a radioligand displacement assay an active substance lowers the binding of a labelled ligand.

For assay [2], the target named is T2, Oxysterol-binding protein 1 (Homo sapiens, UniProt P22059).
T2 sequence (P22059 whole entry): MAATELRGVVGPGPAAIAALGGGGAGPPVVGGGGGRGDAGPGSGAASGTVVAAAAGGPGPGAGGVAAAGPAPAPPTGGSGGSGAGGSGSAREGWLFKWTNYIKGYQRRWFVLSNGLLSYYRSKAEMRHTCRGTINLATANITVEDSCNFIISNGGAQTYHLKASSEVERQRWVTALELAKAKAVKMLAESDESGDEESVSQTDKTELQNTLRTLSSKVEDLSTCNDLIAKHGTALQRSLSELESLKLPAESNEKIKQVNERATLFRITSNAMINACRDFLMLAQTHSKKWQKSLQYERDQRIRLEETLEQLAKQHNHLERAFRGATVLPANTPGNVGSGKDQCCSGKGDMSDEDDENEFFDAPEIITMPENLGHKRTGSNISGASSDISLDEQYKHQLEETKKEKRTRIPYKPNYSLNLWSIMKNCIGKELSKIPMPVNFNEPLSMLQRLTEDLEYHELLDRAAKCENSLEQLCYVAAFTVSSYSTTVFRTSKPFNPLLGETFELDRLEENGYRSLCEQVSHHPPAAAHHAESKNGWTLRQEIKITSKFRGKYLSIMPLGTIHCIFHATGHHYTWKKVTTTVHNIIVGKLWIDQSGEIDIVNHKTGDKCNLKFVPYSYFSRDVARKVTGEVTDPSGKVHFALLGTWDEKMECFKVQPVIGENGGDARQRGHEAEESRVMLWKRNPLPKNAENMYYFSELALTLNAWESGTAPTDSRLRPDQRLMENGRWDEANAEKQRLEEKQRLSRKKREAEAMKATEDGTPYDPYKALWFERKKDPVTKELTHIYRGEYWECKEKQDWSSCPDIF
The experiment in a line: Binding affinity to human OSBP.

In assay [3] the target is T2, Oxysterol-binding protein 1. The experiment in a line: Displacement of [3H]-25-OHC from human OSBP overexpressed in HEK293T cell lysate assessed as inhibition constant by competitive binding assay.
Assay [4] shares this target. Description: Displacement of [3H]-25-OHC from human OSBP overexpressed in HEK293T cell lysate assessed as inhibition constant. In kind it is subcellular.
In assay [5] the target is T1, Oxysterol-binding protein 2. Description: Displacement of [3H]-25-OHC from human ORP4 overexpressed in HEK293T cell lysate assessed as inhibition constant. It is filed as subcellular.

The structures appear in SMILES notation.

For orientation: Ki means a measure of affinity in units of concentration, obtained from inhibition or displacement. On to `CC(C)CC[C@H](O)[C@@H](C)[C@H]1CC[C@H]2[C@@H]3CC=C4C[C@@H](O)CC[C@]4(C)[C@H]3CC[C@]12C`, for which the Ki in assay [1] is over 3000 nM.
The term Kd denotes the equilibrium constant for the complex coming apart. Read a low Kd as tighter binding. Regarding `C[C@H](CCCC(C)(C)O)[C@H]1CC[C@H]2[C@@H]3CC=C4C[C@@H](O)CC[C@]4(C)[C@H]3CC[C@]12C`, the Kd in assay [2] worked out at 22 nM.
Take `CC(C)[C@@H](O)CC[C@@H](C)[C@H]1CC[C@H]2[C@@H]3CC=C4C[C@@H](O)CC[C@]4(C)[C@H]3CC[C@]12C`: the Ki in assay [1] came to 400 nM.
With `CC(C)CCC[C@](C)(O)[C@H]1CC[C@H]2[C@@H]3CC=C4C[C@@H](O)CC[C@]4(C)[C@H]3CC[C@@]21C`, the Ki in assay [3] is 130 nM; in assay [1], 320 nM.
`C[C@@H](CO)CCC[C@@H](C)[C@H]1CC[C@H]2[C@@H]3CC=C4C[C@@H](O)CC[C@]4(C)[C@H]3CC[C@]12C`: in assay [1], the inhibition constant (Ki) was over 1000 nM.
Still for that read-out and setting: the result for `CCN(CC)CCO[C@H]1CC[C@@]2(C)C(=CC[C@@H]3[C@@H]2CC[C@]2(C)C(=O)CC[C@@H]32)C1` reads over 50000 nM.
In the case of `COc1ccc(C(=O)O[C@H]2[C@H](O[C@@H]3[C@@H](OC(C)=O)[C@H](O[C@H]4C[C@H]5[C@@H]6CC=C7C[C@@H](O)CC[C@]7(C)[C@H]6CC[C@]5(C)[C@@]4(O)[C@H](C)C(=O)CCC(C)C)OC[C@@H]3O)OC[C@@H](O)[C@@H]2O)cc1`, the Ki in assay [4] amounted to 16 nM; in assay [5], 71 nM.
Take `C[C@H](O)[C@H]1CC[C@H]2[C@@H]3CC=C4C[C@@H](O)CC[C@]4(C)[C@H]3CC[C@]12C`: in assay [1], the Ki is over 100000 nM.
In the case of `C[C@H](CCCC(C)(C)O)[C@H]1CC[C@H]2[C@@H]3[C@H](O)C=C4C[C@@H](O)CC[C@]4(C)[C@H]3CC[C@]12C`, the values for the inhibition constant (Ki) in assay [3] and in assay [1] were 78 nM and 92 nM, respectively.
Turning to `C[C@H](CO)CCC[C@@H](C)[C@H]1CC[C@H]2[C@@H]3CC=C4C[C@@H](O)CC[C@]4(C)[C@H]3CC[C@]12C`, the Ki in assay [1] is over 870 nM.
As for `CCCCCCCC[C@](C)(O)[C@H]1CC[C@H]2[C@@H]3CC=C4C[C@@H](O)CC[C@]4(C)[C@H]3CC[C@@]21C`, the inhibitory constant (Ki) in assay [3] was over 10000 nM; in assay [1], over 20000 nM.
For `CC(C)C[C@](C)(O)[C@H]1CC[C@H]2[C@@H]3CC=C4C[C@@H](O)CC[C@]4(C)[C@H]3CC[C@@]21C`, in that order: over 20000 nM and over 30000 nM.
As for `CC[C@](C)(O)[C@H]1CC[C@H]2[C@@H]3CC=C4C[C@@H](O)CC[C@]4(C)[C@H]3CC[C@@]21C`, the Ki in assay [3] and in assay [1] was over 30000 nM in each case.
Consider `CC1(C)C[C@H]2[C@@H]3CC=C4C[C@@H](OC5CCCCO5)CC[C@]4(C)[C@H]3CC[C@]2(C)[C@H]1O` (stereo partly drawn), for which the inhibition constant (Ki) in assay [4] was determined as 22 nM; in assay [5], 98 nM.
On to `C[C@]12CC[C@H](O)CC1=CC[C@@H]1[C@@H]2CC[C@]2(C)C([C@H](O)CO)=CC[C@@H]12`, for which the inhibition constant (Ki) in assay [3] and in assay [1] was over 50000 nM each time.
As for `CC(C)CC[C@](C)(O)[C@H]1CC[C@H]2[C@@H]3CC=C4C[C@@H](O)CC[C@]4(C)[C@H]3CC[C@@]21C`, the Ki is 1300 nM in assay [3] and over 2000 nM in assay [1].
Take `CC(C)CCN[C@@H](C)[C@H]1CC[C@H]2[C@@H]3CC=C4C[C@@H](O)CC[C@]4(C)[C@H]3CC[C@]12C`: the inhibitory constant (Ki) in assay [3] and in assay [1] was over 100000 nM each time.
As for `CCCC[C@](C)(O)[C@H]1CC[C@H]2[C@@H]3CC=C4C[C@@H](O)CC[C@]4(C)[C@H]3CC[C@@]21C`, the inhibitory constant (Ki) is over 10000 nM in assay [3] and over 30000 nM in assay [1].
For `CCCCC[C@](C)(O)[C@H]1CC[C@H]2[C@@H]3CC=C4C[C@@H](O)CC[C@]4(C)[C@H]3CC[C@@]21C`, in that order: 600 nM and 780 nM.
For `C[C@@H]1[C@@]2(CC[C@](C)(O)CO2)O[C@H]2C=C3[C@@H]4[C@@H](O)C[C@H]5Cc6nc7c(nc6C[C@]5(C)[C@H]4C[C@@H](O)[C@]3(C)[C@]21O)C[C@@H]1CC[C@H]2[C@H]3C[C@@H]4O[C@@]5(CCC(C)(C)O5)[C@@H](C)[C@@H]4[C@@]3(C)[C@H](O)C[C@@H]2[C@@]1(C)C7`, the Ki in assay [4] is 28 nM; in assay [5], over 360 nM.
`C[C@H](CCCC(C)(C)O)[C@H]1CC[C@H]2[C@@H]3CCC4C[C@@H](O)CC[C@]4(C)[C@H]3CC[C@]12C` (stereo partly drawn): the Ki in assay [1] was found to be 51 nM.
Regarding `CC(C)C[C@@](C)(O)[C@H]1CC[C@H]2[C@@H]3CC=C4C[C@@H](O)CC[C@]4(C)[C@H]3CC[C@@]21C`, the inhibition constant (Ki) in assay [3] and in assay [1] was over 50000 nM throughout.
`CCCCCCCC[C@@](C)(O)[C@H]1CC[C@H]2[C@@H]3CC=C4C[C@@H](O)CC[C@]4(C)[C@H]3CC[C@@]21C`: the inhibitory constant (Ki) in assay [3] and in assay [1] was over 100000 nM each time.
As for `CC(C)CC[C@@H](O)[C@](C)(O)[C@H]1CC[C@H]2[C@@H]3CC=C4C[C@@H](O)CC[C@]4(C)[C@H]3CC[C@]12C`, the inhibition constant (Ki) in assay [3] was over 30000 nM; in assay [1] it was over 15000 nM.
For `CC(C)CC[C@@H](O)[C@@H](C)[C@H]1CC[C@H]2[C@@H]3CC=C4C[C@@H](O)CC[C@]4(C)[C@H]3CC[C@]12C` [22(R)-HYDROXYCHOLESTEROL], in assay [1], the Ki is over 50000 nM.
As to `C[C@@H]1[C@]2(O[C@H]3C=C4[C@@H]5CC[C@H]6Cc7nc8c(nc7C[C@]6(C)[C@H]5C[C@@H](O)[C@]4(C)[C@]31O)C[C@@H]1CC[C@H]3C4=CC[C@@H]5[C@H](C)[C@@]6(OC[C@]45C(=O)C[C@@H]3[C@@]1(C)C8)OC(C)(C)C[C@H]6O)O[C@](C)(CO)C[C@H]2O` [CEPHALOSTATIN 1], the Ki in assay [4] (hek293t) worked out at 39 nM; in assay [5] (hek293t) it was 78 nM.
Regarding `C[C@@H]1CC[C@@]2(OC1)O[C@H]1C[C@H]3[C@@H]4CC=C5C[C@@H](O)CC[C@]5(C)[C@H]4CC[C@]3(C)[C@H]1[C@@H]2C` [DISOGENIN], in assay [3], the Ki was over 100000 nM.
For the compound `CC(C)(O)[C@H]1O[C@H]2CC[C@@]3(C)[C@@](O)(CC[C@H]4Cc5c([nH]c6ccccc56)[C@@]43C)C2=CC1=O` [PAXILLINE], the Ki in assay [3] was over 50000 nM; in assay [1], over 30000 nM.
On to `CC(C)=CCC/C(C)=C/Cc1c(O)cc(/C=C/c2cc(O)c3c(c2)C[C@@H]2C(C)(C)[C@H](O)[C@H](O)C[C@@]2(C)O3)cc1O` [SCHWEINFURTHIN A], for which the inhibition constant Ki in assay [4] (hek293t) is 68 nM; in assay [5] (hek293t), 2600 nM.
